According to patent US12570655B2, “Cysteine covalent modifiers of AKT1 and uses thereof” (Terremoto Biosciences, Inc., priority 2023, dated 2026):
Like-named read-outs stand apart in the source and are kept apart here.

Key:
AKT1 E17K = target: T1, AKT1 E17K (Homo sapiens, UniProt P31749, E17K); assay: Live cell AKT1 E17K target engagement by NanoBRET competitive probe displacement; assay type: cell-based; conditions: HEK293 cells transfected with kinase-NanoLuciferase fusion, 2 h at 37° C.
T1 construct: expressed in transfected cells; host or cells: HEK293
T1 sequence (P31749 whole entry E17K, the tested form may be a part): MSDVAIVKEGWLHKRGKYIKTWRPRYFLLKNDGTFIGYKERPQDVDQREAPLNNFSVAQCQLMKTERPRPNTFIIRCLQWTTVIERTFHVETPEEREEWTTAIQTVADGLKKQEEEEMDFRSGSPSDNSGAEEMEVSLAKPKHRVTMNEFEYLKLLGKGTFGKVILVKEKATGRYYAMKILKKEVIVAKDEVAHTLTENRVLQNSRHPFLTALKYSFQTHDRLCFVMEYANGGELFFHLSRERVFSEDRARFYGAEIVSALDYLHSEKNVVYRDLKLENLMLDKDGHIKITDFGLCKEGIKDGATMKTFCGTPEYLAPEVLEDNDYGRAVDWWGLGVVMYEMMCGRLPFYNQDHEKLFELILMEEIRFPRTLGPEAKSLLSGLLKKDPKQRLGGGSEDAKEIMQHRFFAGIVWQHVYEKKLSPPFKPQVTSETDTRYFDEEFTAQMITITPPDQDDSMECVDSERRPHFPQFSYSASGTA
Procedure: Determining Live Cell AKT1 E17K, AKT1 WT, and AKT2 Target Engagement by NanoBRET Competitive Probe Displacement.
Live cell target engagement assays were performed as described (Vasta, J. D. et al. Cell Chem Biol 2018, 25(11), 206-214). Briefly, HEK293 cells were transfected with plasmids encoding kinase-NanoLuciferase fusion proteins overnight. Cells were then treated with serial dilutions of compound and an ˜EC50 concentration of fluorescently-tagged ATP-competitive tracer (Promega). After incubation for 2 h at 37° C., luciferase substrate and extracellular luciferase inhibitor were added to all wells, and luminescent intensity at 460 nm and 600 nm were measured on a multimode plate-reader. The ratio of E600/E460 was calculated to give the tracer engagement signal (BRET). IC50 values were calculated by fitting BRET values to a log(inhibitor) vs. response Hill equation.

[1] = tested on: LAPC4 prostate cancer cells; assay: Antiproliferative effects in LAPC4 cells (CellTiter Glo); assay type: cell-based; conditions: LAPC4 cells (AKT1 E17K allele), read-out: LAPC4 proliferation IC50
Procedure: Antiproliferative Effects in LAPC4 Cells.
LAPC4 prostate cancer cells (Klein, K. A. et al. Nat Med 1997, 3, 402-408), which express the AKT1 E17K allele, were grown in IMDM media (Hyclone) supplemented with 12% FBS+1% P/S. To assess compound effects on growth, 1,000 cells/well were seeded in 384 well assay plates, incubated with compound dilutions dissolved in DMSO. After 72 h, intracellular ATP content was assessed with CellTiter Glo reagent (Promega) according to the manufacturer's instructions. IC50 values were calculated by fitting luminescence values to a log(inhibitor) vs. response Hill equation.

Work on `C=CC(=O)N1CC(F)C(N[C@H]2CCc3cc(-n4c(-c5cccnc5N)nc5ccc(-n6cccn6)nc54)ccc32)C(F)C1` (single isomer, unassigned) [Example 221, 1-((3*,4*,5*)-4-(((S)-5-(2-(2-aminopyridin-3-yl)-5-(1H-pyrazol-1-yl)-3H-imidazo[4,5-b]pyridin-3-yl)-2,3-dihydro-1H-inden-1-yl)amino)-3,5-difluoropiperidin-1-yl)prop-2-en-1-one] yielded an IC50 (AKT1 E17K) of 567 nM and an IC50 ([1]; 72 h) greater than 10000 nM.
For `C=CC(=O)N1CCC(N[C@H]2CCc3cc(-n4c(-c5cccnc5N)nc5ccc(CN6CCOCC6)nc54)ccc32)CC1` [Example 260, 1-(4-{[(1S)-5-[2-(2-aminopyridin-3-yl)-5-(morpholin-4-ylmethyl)imidazo[4,5-b]pyridin-3-yl]-2,3-dihydro-1H-inden-1-yl]amino}piperidin-1-yl)prop-2-en-1-one], the IC50 (AKT1 E17K) was greater than 1000 nM and the IC50 ([1]; Homo sapiens, LAPC4, 72 h) was greater than 10000 nM.
`C=CC(=O)N1CCC(N[C@H]2CCc3cc(-n4c(-c5cccnc5N)nc5ccc(-c6ccccc6)nc54)ccc32)CC1` [Example 209, (S)-1-(4-((5-(2-(2-aminopyridin-3-yl)-5-phenyl-3H-imidazo[4,5-b]pyridin-3-yl)-2,3-dihydro-1H-inden-1-yl)amino)piperidin-1-yl)prop-2-en-1-one] gave an IC50 (AKT1 E17K) of 2.29 nM and an IC50 ([1]; Homo sapiens, LAPC4, 72 h) of 17 nM.
For `C=CC(=O)N1CCC(N[C@@H]2c3ccc(-n4c(-c5cccnc5N)nc5ccc(-n6cccn6)nc54)cc3CC2C)CC1` (single isomer, unassigned) [Example 182, 1-(4-(((1S,2*)-5-(2-(2-aminopyridin-3-yl)-5-(1H-pyrazol-1-yl)-3H-imidazo[4,5-b]pyridin-3-yl)-2-methyl-2,3-dihydro-1H-inden-1-yl)amino)piperidin-1-yl)prop-2-en-1-one], the IC50 (AKT1 E17K) was 152 nM and the IC50 ([1]; 72 h) was 3160 nM.
`C=CC(=O)N1CCC(N[C@H]2CCc3cc(-n4c(-c5cccnc5N)nc5ccc(N6C7CCC6COC7)nc54)ccc32)CC1` [Example 278, 1-(4-{[(1S)-5-[2-(2-aminopyridin-3-yl)-5-{3-oxa-8-azabicyclo[3.2.1]octan-8-yl}imidazo[4,5-b]pyridin-3-yl]-2,3-dihydro-1H-inden-1-yl]amino}piperidin-1-yl)prop-2-en-1-one] was tested, and the IC50 (AKT1 E17K) was 164 nM and the IC50 ([1]; Homo sapiens, LAPC4, 72 h) was 1850 nM.
`C=CC(=O)N1CC(F)C(N[C@H]2CCc3cc(-n4c(-c5cccnc5N)nc5ccc(-n6cccn6)nc54)ccc32)C(F)C1` (single isomer, unassigned) [Example 222, 1-((3*,5*)-4-(((S)-5-(2-(2-aminopyridin-3-yl)-5-(1H-pyrazol-1-yl)-3H-imidazo[4,5-b]pyridin-3-yl)-2,3-dihydro-1H-inden-1-yl)amino)-3,5-difluoropiperidin-1-yl)prop-2-en-1-one] was tested, and the IC50 (AKT1 E17K) was greater than 1000 nM and the IC50 ([1]; 72 h) was greater than 10000 nM.
Compound `C=CC(=O)N1Cc2cccc(C(=O)N[C@H]3CCc4cc(-n5c(-c6cccnc6N)nc6ccc(-n7cccn7)nc65)ccc43)c2C1` [Example 266, (S)-2-acryloyl-N-(5-(2-(2-aminopyridin-3-yl)-5-(1H-pyrazol-1-yl)-3H-imidazo[4,5-b]pyridin-3-yl)-2,3-dihydro-1H-inden-1-yl)isoindoline-4-carboxamide] has an IC50 (AKT1 E17K) of 3.34 nM and an IC50 ([1]; Homo sapiens, LAPC4, 72 h) of 4.4 nM.
With `C=CC(=O)N1CCC(N[C@H]2CCc3cc(-n4c(-c5cccnc5N)nc5ccc(-n6cccn6)nc54)ccc32)C[C@H]1C(F)F` (single isomer, unassigned) [Example 215, 1-((2S,4*)-4-(((S)-5-(2-(2-aminopyridin-3-yl)-5-(1H-pyrazol-1-yl)-3H-imidazo[4,5-b]pyridin-3-yl)-2,3-dihydro-1H-inden-1-yl)amino)-2-(difluoromethyl)piperidin-1-yl)prop-2-en-1-one] the IC50 (AKT1 E17K) was 4.56 nM and the IC50 ([1]; 72 h) was 42.3 nM.
Work on `C=CC(=O)N1CCC(N[C@H]2CCc3cc(-n4c(-c5ccccc5C(F)F)nc5ccc(-n6cccn6)nc54)ccc32)CC1` [Example 285, (S)-1-(4-((5-(2-(2-(difluoromethyl)phenyl)-5-(1H-pyrazol-1-yl)-3H-imidazo[4,5-b]pyridin-3-yl)-2,3-dihydro-1H-inden-1-yl)amino)piperidin-1-yl)prop-2-en-1-one] yielded an IC50 (AKT1 E17K) of 604 nM and an IC50 ([1]; Homo sapiens, LAPC4, 72 h) of 1550 nM.
In the case of `C=CC(=O)N1CCC(N[C@H]2CC(F)(F)c3cc(-n4c(-c5cccnc5N)nc5ccc(-n6cccn6)nc54)ccc32)CC1` [Example 305, (S)-1-(4-((5-(2-(2-aminopyridin-3-yl)-5-(1H-pyrazol-1-yl)-3H-imidazo[4,5-b]pyridin-3-yl)-3,3-difluoro-2,3-dihydro-1H-inden-1-yl)amino)piperidin-1-yl)prop-2-en-1-one], the IC50 (AKT1 E17K) is reported as 63.4 nM and the IC50 ([1]; Homo sapiens, LAPC4, 72 h) is reported as 2740 nM.
Compound `C=CC(=O)N1CCC(N[C@H]2CCc3cc(-n4c(C5CC5)nc5ccc(-n6cccn6)nc54)ccc32)CC1` [Example 248, (S)-1-(4-((5-(2-cyclopropyl-5-(1H-pyrazol-1-yl)-3H-imidazo[4,5-b]-430-pyridine-3-yl)-2,3-dihydro-1H-inden-1-yl)amino)piperidin-1-yl)prop-2-en-1-one] has an IC50 (AKT1 E17K) greater than 1000 nM and an IC50 ([1]; Homo sapiens, LAPC4, 72 h) greater than 10000 nM.
For `C=CC(=O)N1CCC(N[C@H]2CCc3cc(-n4c(-c5cccnc5N)nc5ccc(C6COC6)nc54)ccc32)CC1` [Example 279, 1-(4-{[(1S)-5-[2-(2-aminopyridin-3-yl)-5-(oxetan-3-yl)imidazo[4,5-b]pyridin-3-yl]-2,3-dihydro-1H-inden-1-yl]amino}piperidin-1-yl)prop-2-en-1-one], the IC50 (AKT1 E17K) was 168 nM and the IC50 ([1]; Homo sapiens, LAPC4, 72 h) was 1570 nM.
`C=CC(=O)N1CCCC(c2cn([C@H]3CCc4cc(-n5c(-c6cccnc6N)nc6ccc(-n7cccn7)nc65)ccc43)nn2)C1` (single isomer, unassigned) [Example 167, 1-((*)-3-(1-((S)-5-(2-(2-aminopyridin-3-yl)-5-(1H-pyrazol-1-yl)-3H-imidazo[4,5-b]pyridin-3-yl)-2,3-dihydro-1H-inden-1-yl)-1H-1,2,3-triazol-4-yl)piperidin-1-yl)prop-2-en-1-one] showed an IC50 (AKT1 E17K) of 37.1 nM and an IC50 ([1]; Homo sapiens, LAPC4, 72 h) of 479 nM.
Compound `C=CC(=O)N1CC(F)C(N[C@H]2CCc3cc(-n4c(-c5cccnc5N)nc5ccc(-n6cccn6)nc54)ccc32)C(F)C1` (single isomer, unassigned) [Example 220, 1-((3*,4*,5*)-4-(((S)-5-(2-(2-aminopyridin-3-yl)-5-(1H-pyrazol-1-yl)-3H-imidazo[4,5-b]pyridin-3-yl)-2,3-dihydro-1H-inden-1-yl)amino)-3,5-difluoropiperidin-1-yl)prop-2-en-1-one] has an IC50 (AKT1 E17K) of 380 nM and an IC50 ([1]; Homo sapiens, LAPC4, 72 h) greater than 10000 nM.
For `C=CC(=O)N1CCC(N[C@@H]2c3c(F)cc(-n4c(-c5cccnc5N)nc5ccc(-n6cccn6)nc54)cc3CC2F)CC1` (single isomer, unassigned) [Example 341, 1-(4-(((1R,2*)-5-(2-(2-aminopyridin-3-yl)-5-(1H-pyrazol-1-yl)-3H-imidazo[4,5-b]pyridin-3-yl)-2,7-difluoro-2,3-dihydro-1H-inden-1-yl)amino)piperidin-1-yl)prop-2-en-1-one], the IC50 (AKT1 E17K) was 80.3 nM.
`C=CC(=O)N1CCN(C2CCc3cc(-n4c(-c5cccnc5N)nc5ccc(-n6cccn6)nc54)ccc32)CC1` (stereo not shown) [Example 204, 1-(4-{5-[2-(2-aminopyridin-3-yl)-5-(pyrazol-1-yl)imidazo[4,5-b]pyridin-3-yl]-2,3-dihydro-1H-inden-1-yl}piperazin-1-yl)prop-2-en-1-one] showed an IC50 (AKT1 E17K) of 287 nM and an IC50 ([1]; Homo sapiens, LAPC4, 72 h) of 3820 nM.
In the case of `C=CC(=O)N1C[C@H]2COC[C@@H](C1)C2N[C@H]1CCc2cc(-n3c(-c4cccnc4N)nc4ccc(C5CC5)nc43)ccc21` (single isomer, unassigned) [Example 171, 1-((1R,5S,9*)-9-(((S)-5-(2-(2-aminopyridin-3-yl)-5-cyclopropyl-3H-imidazo[4,5-b]pyridin-3-yl)-2,3-dihydro-1H-inden-1-yl)amino)-3-oxa-7-azabicyclo[3.3.1]nonan-7-yl)prop-2-en-1-one], the IC50 (AKT1 E17K) is reported as greater than 1000 nM and the IC50 ([1]; 72 h) is reported as 6610 nM.
Work on `C=CC(=O)N1CCC(N[C@H]2CCc3cc(-n4c(-c5ccccc5C#N)nc5ccc(-n6cccn6)nc54)ccc32)CC1` [Example 284, 2-{3-[(1S)-1-{[1-(prop-2-enoyl)piperidin-4-yl]amino}-2,3-dihydro-1H-inden-5-yl]-5-(pyrazol-1-yl)imidazo[4,5-b]pyridin-2-yl}benzonitrile] yielded an IC50 (AKT1 E17K) of 273 nM and an IC50 ([1]; Homo sapiens, LAPC4, 72 h) of 7210 nM.
For `C=CC(=O)N1CCC(N[C@@H]2c3ccc(-n4c(-c5cccnc5N)nc5ccc(C6CC6)nc54)cc3CC2F)CC1` (single isomer, unassigned) [Example 202, 1-(4-(((1R,2*)-5-(2-(2-aminopyridin-3-yl)-5-cyclopropyl-3H-imidazo[4,5-b]pyridin-3-yl)-2-fluoro-2,3-dihydro-1H-inden-1-yl)amino)piperidin-1-yl)prop-2-en-1-one], the IC50 (AKT1 E17K) was 111 nM and the IC50 ([1]; Homo sapiens, LAPC4, 72 h) was 3090 nM.
